Laboratory results from patent publication US8741929B2, “Methods using 3-(4-amino-1-oxo-1,3-dihydro-isoindol-2-yl)-piperidine-2,6-dione for treatment of mantle cell lymphomas” (Celgene Corporation, priority 2006, dated 2014).
“And” between values parts separate entries of the source, which are not always exact repeats. Equal values may be shown once.

Legend:
[1] = test system: relapsed and refractory aggressive non-Hodgkin's lymphoma (NHL); experiment: Phase II study of oral lenalidomide monotherapy in patients; type: in vivo, human
Experimental: A multi-center, open-label, Phase II study was conducted in patients with relapsed and refractory aggressive non-Hodgkin's lymphoma (NHL). […] Patients in the study received lenalidomide in an amount of 25mg orally once daily for days one to 21 in a 28-day cycle and continued therapy for 52 weeks as tolerated or until disease progression.
Twenty-five patients age 45 to 80 years (median age 63), with relapsed and refractory aggressive NHL, and who had received a median of 2.5 prior treatments (range: 1-6 prior treatments), were administered with lenalidomide in an amount of 25 mg orally once daily for 21 days in the treatment cycle. Sixteen patients with aggressive NHL were evaluable for tumour assessment. Of the 16 patients, eight had diffuse large cell lymphoma, three had mantle cell lymphoma, two patients had follicular lymphoma, one had transformed lymphoma, and two had aggressive lymphoma of unknown histology.

[2] = test system: relapsed or refractory mantle cell lymphoma (MCL)
Experimental: A single-center, open label, phase I/II study was conducted to determine the maximum tolerated dose (MTD) and to evaluate the efficacy of 3-(4-amino-1-oxo-1,3-dihydro-isoindol-2-yl)-piperidin-2,6-dione (lenalidomide or Revlimid®) in combination with rituximab for relapsed or refractory mantle cell lymphoma (MCL). Patients with one to four lines of prior therapy were eligible. Patients with prior treatment using thalidomide or rituximab, regardless of resistance, were eligible. […] A standard phase I dose escalation was used to determine MTD with dose levels at 10 mg, 15 mg, 20 mg, and 25 mg of Revlimid®. Dose-limiting toxicity (DLT) was defined as grade 3 or 4 non-hematologic or grade 4 hematologic toxicity during the first cycle.
Each cohort had 3 patients. […] The number of cycles given ranged from one to five cycles.

[3] = 25 mg daily, 21/28 days, 16 evaluable patients
[4] = 25 mg orally once daily days 1-21 of 28-day cycle, 16 evaluable patients
[5] = first cycle, + rituximab, number of patients/events

## Nc1cccc2c1CN(C1CCC(=O)NC1=O)C2=O (centres unmarked) [Revlimid®, 3-(4-amino-1-oxo-1,3-dihydro-isoindol-2-yl)-piperidine-2,6-dione]
[1]; [3]
  complete response: One
  partial responses: four
  stable disease: Four
[1]; 25 mg daily, 21/28 days, of 22 patients
  Grade 4 adverse reaction: three
[1]; 25 mg daily, 21/28 days, predominately haematological and Grade 3
  Grade 3 and 4 adverse events: ten of 22
[1]; [4]
  objective responses: five
  objective responses (rate): 31 per cent
[1]; after a median follow-up of two months (range one to seven months)
  disease progression: Seven
[1]; one patient with diffuse large cell lymphoma, complete response
  progression free survival: more than 180 days
[1]; one patient with follicular lymphoma, partial response
  progression free survival: more than 55 days
[1]; one patient with mantle cell lymphoma, partial response
  progression free survival: more than 57 days
[1]; single patients with diffuse large cell lymphoma, partial response, listed as lenalidomide
  progression free survival: 135 days and 242 days
[2]; at cycle 3 and cycle 5, respectively, + rituximab, seven evaluable
  stable disease: Two
[2]; dose levels up to 20 mg Revlimid + rituximab 375 mg/m^2 weekly
  maximum tolerated dose (MTD): the MTD has not been reached
[2]; during cycle 2, + rituximab, number of events
  grade 3 toxicity (thrombocytopenia) beyond the first cycle: 1
[2]; first cycle, + rituximab
  grade 2 anemia: one
[2]; [5]
  Grade 1 hematologic events: anemia: 1
  Grade 1 hematologic events: leukopenia: 3
  Grade 1 hematologic events: thrombocytopenia: 2
  Grade 1 non-hematologic toxic events: fatigue: 4
  Grade 1 non-hematologic toxic events: myalgias: 2
  Grade 1 non-hematologic toxic events: pruritis: 3
  Grade 1 non-hematologic toxic events: stomatitis: 3
  Grade 2 non-hematologic toxic events: myalgias: 2
  Grade 2 non-hematologic toxic events: rash: 2
[2]; particularly relapsed or refractory mantle cell lymphoma
  study conclusion on efficacy: effective in treating mantle cell lymphoma
